Article PMC10406726, “Development, scrutiny, and modulation of transient reporter gene assays of the xenobiotic metabolism pathway in zebrafish hepatocytes” (Cell Biology and Toxicology, 2021)
Read-outs that look alike come from different tables or passages of the source.

Experiments:
ARE (channel 2) = test system: ARE (channel 2); design: method as in ToxCast database, CompTox dashboard; details: TOX21_ARE_BLA_Agonist_ch2; ref ToxCast database, CompTox dashboard; cited from earlier work
HEK293 (cell cycle) = test system: HEK293 (cell cycle); design: method as in ToxCast database, CompTox dashboard; details: TOX21_RT_HEK293_FLO_40hr_viability; ref ToxCast database, CompTox dashboard; cited from earlier work
[1] = test system: Nrf2 transcription factor activation (Nrf2/Keap1/ARE); assay: Nrf2-responsive transient DLR reporter gene assay (pGL4.37 + pRL-CMV) in ZFL cells; format: cell-based, zebrafish (Danio rerio); details: for EC50: 4PL regression, normalized induction
Source text: A transient reporter gene assay for the assessment of oxidative stress in the ZFL cell line had been described previously (Lungu-Mitea and Lundqvist [2020]), and was applied here in an identical manner. Please consult the respective chapter within the SI for more details.
ZFL cells were also transiently co-transfected with the Nrf2-responsive reporter vector pGL4.37 and the normalization vector pRL-CMV, as described in (Lungu-Mitea and Lundqvist [2020]). The transcription factor Nrf2 is a central regulator of the oxidative stress response pathways (Nrf2/Keap1/ARE) (Itoh et al. [2004]) and a keystone in the regulation of oxidative stress detoxification, metabolism, and induction of related phase-II enzymes (e.g., GST, NQO1, HO-1). Detailed descriptions, results, and discussion are given in the respective section of the SI (p. 12–14; Figs. S10 + 11, Table S4). […]
132 To undermine the “maisonette” squelching hypothesis, Comptox data regarding the induction of cellular
133 stress response pathways were backed up by empirical data in ZFL cell lines. Therefore, ZFL cells were
134 transiently co-transfected with the Nrf2-responsive reporter vector pGL4.37 and the normalization
135 vector pRL-CMV, as described in (Lungu-Mitea and Lundqvist 2020). Experimental design, data
136 handling, and statistical evaluation were identical to procedures described in the main manuscript. The
137 transcription factor Nrf2 is a central regulator of the oxidative stress response pathways
138 (Nrf2/Keap1/ARE) (Itoh et al. 2004) and a keystone in the regulation of oxidative stress detoxification,
139 metabolism, and induction of related phase-II enzymes (e.g. GST, NQO1, HO-1).
141 S10). […] Statistically
143 of the Nrf2-related luciferase signal.
144 optical inspection under the microscope ( not illustrated), leading to artefact effects in the luciferase
145 measurement. Therefore, specific points were excluded from the analysis and deemphasized in fig. S10.
146 Possibly, compound aggregation led to a flattening of the cytotoxicity curve in fig. S10. Compound
147 aggregation at higher molar concentratio ns has been discussed in (Owen et al. 2012, 2014) .
148 Concentrations up to cytotoxicity were used to derive a sigmoidal concentration -response relationship
149 (fig. S11). The computed parameters are depicted in tab. S4.

[2] = target: ESR1 (estrogen receptor 1); design: method as in ToxCast database, CompTox dashboard; details: ATG_ERa_TRANS_up; ref ToxCast database, CompTox dashboard; cited from earlier work
[3] = test system: NR1I2 (nuclear receptor subfamily 1, group I, member 2); design: method as in ToxCast database, CompTox dashboard; details: ATG_PXRE_CIS_up; ref ToxCast database, CompTox dashboard; cited from earlier work
ARE (channel 1) = test system: ARE (channel 1); design: method as in ToxCast database, CompTox dashboard; details: TOX21_ARE_BLA_Agonist_ch1; ref ToxCast database, CompTox dashboard; cited from earlier work
[4] = target: ESRRA (estrogen-related receptor alpha); design: method as in ToxCast database, CompTox dashboard; details: TOX21_PGC_ERR_Agonist; ref ToxCast database, CompTox dashboard; cited from earlier work
[5] = test system: NR1I2 (nuclear receptor subfamily 1, group I, member 2); design: method as in ToxCast database, CompTox dashboard; details: ATG_PXR_TRANS_up; ref ToxCast database, CompTox dashboard; cited from earlier work
ZFL cells = test system: ZFL cells; design: method as in Eknefelt [2018]; details: TCDD; same cellular context, identical exposure concentrations; ref Eknefelt [2018]; cited from earlier work

O=c1cc(-c2ccccc2)oc2ccc3ccccc3c12 [BNF, β-naphthoflavone]
AC50 (ARE (channel 2)): 1220 nM
AC50 (HEK293 (cell cycle)): 5.05 µM
LOEC of Nrf2 induction ([1]; BNF exposure range of 3 pM to 1 mM, pGL4.37 + pRL-CMV): 30 nM
Slope (CI) of 4PL regression ([1]; BNF, pGL4.37 + pRL-CMV): 0.77 (0.43-1.62)
concentration of maximal Nrf2 induction ([1]; BNF, pGL4.37 + pRL-CMV (Fig. S10)): 100 nM
EC50 ([1]; BNF, pGL4.37 + pRL-CMV): 9.7 nM
EC50 ([1]; Danio rerio, BNF, pGL4.37 + pRL-CMV): 9.68 nM
maximal Nrf2 induction ([1]; at 100 nM BNF, pGL4.37 + pRL-CMV): 3.4 fold
AC50 [2]: 2860 nM
AC50 [3]: 2240 nM
AC50 (ARE (channel 1)): 837 nM
AC50 [4]: 189 nM
AC50 [5]: 6.58 µM

Clc1cc2c(cc1Cl)Oc1cc(Cl)c(Cl)cc1O2 [TCDD, 2,3,7,8-tetrachlorodibenzo-p-dioxin]
cytotoxicity, historical data (ZFL cells): no TCDD-induced cytotoxicity
